Results on eleven compounds are retold here after PubChem BioAssay (NCI).

Among the test systems are A549 NSCLC; EKVX NSCLC; SN12C renal; RPMI-8226 leukemia; NCI-H226 lung; SF-539 CNS; SK-OV-3 ovarian; COLO 205 colon; A498 renal.
Holding throughout (experiment): NCI anticancer screen, dose series, 48 h

SMILES strings stand for the structures. “And” between values parts separate entries of the source, which are not always exact repeats. Identical values can stand only once.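 Protocol summary: plate cells (96-well), add compound at 5 concentrations, incubate 48 h, interpolate endpoints linearly. The concentration for 50% growth inhibition is given as GI50. TGI: total growth inhibition.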

Consider `O=C(NCCCCCCCCNC(=O)c1cnc2ccccc2n1)c1cnc2ccccc2n1`, for which the TGI with A549 NSCLC, in the test with EKVX NSCLC, in the test on SN12C renal, in the test on RPMI-8226 leukemia, with NCI-H226 lung and in the test on SF-539 CNS was above 100 µM in each case. Further, the TGI with SK-OV-3 ovarian, with COLO 205 colon and in the test on A498 renal was above 100 µM in each case.

With `N#Cc1cc(C#N)c(Cl)nc1N`, the TGI in the test on A549 NSCLC, in the test with EKVX NSCLC, with SN12C renal, in the test with RPMI-8226 leukemia, with NCI-H226 lung and in the test with SF-539 CNS was above 10 µM in each case. The TGI in the test on SK-OV-3 ovarian and with COLO 205 colon was above 10 µM each time.

Regarding `O=C(c1ccc2ccccc2c1O)N1CCCCC1`, the TGI was above 100 µM in the test with EKVX NSCLC; 95.9 µM in the test with RPMI-8226 leukemia; above 100 µM in the test with NCI-H226 lung; above 100 µM in the test with SF-539 CNS; above 100 µM in the test with SK-OV-3 ovarian; above 100 µM in the test on COLO 205 colon. Also, the TGI in the test on A498 renal is above 100 µM.

With `CN1CCc2cc3c(cc2C1O)OCO3` (configuration not stated), the GI50 was 15.9 µM and > 100 µM with A549 NSCLC; 17.8 µM and > 100 µM in the test with EKVX NSCLC; 20.4 µM and > 100 µM in the test on SN12C renal; 12.8 µM and > 100 µM in the test on SF-539 CNS; 17.5 µM and > 100 µM with SK-OV-3 ovarian; 13.5 µM and > 100 µM in the test with COLO 205 colon. Moreover, the GI50 in the test on A498 renal is 22.9 µM and > 100 µM. Also, the TGI was 31.6 µM and > 100 µM in the test on A549 NSCLC; 36.8 µM and > 100 µM in the test on EKVX NSCLC; 41.4 µM and > 100 µM in the test with SN12C renal; above 100 µM in the test on RPMI-8226 leukemia; 29.4 µM and > 100 µM with SF-539 CNS; 31.7 µM and > 100 µM in the test on SK-OV-3 ovarian. Also, the TGI in the test on COLO 205 colon is 31.8 µM and > 100 µM; in the test with A498 renal, 39.9 µM and > 100 µM.

Consider `C[n+]1c(/C=C\C=C\N2CCCCC2)sc2ccccc21`, for which the GI50 with A549 NSCLC is 0.413 µM; with EKVX NSCLC, 0.255 µM; in the test with SN12C renal it was 0.716 µM; in the test with RPMI-8226 leukemia, 0.0691 µM; in the test on NCI-H226 lung, 1.05 µM; in the test with SF-539 CNS, 1.03 µM. Moreover, the GI50 was 0.794 µM in the test with SK-OV-3 ovarian, 0.204 µM in the test with COLO 205 colon and 0.293 µM in the test on A498 renal. For the same compound, the TGI in the test with A549 NSCLC came out at 3.07 µM; in the test with EKVX NSCLC, 10.8 µM; in the test with SN12C renal, 21.2 µM; in the test on RPMI-8226 leukemia it was 1.09 µM; in the test with NCI-H226 lung, 22.4 µM; with SF-539 CNS, 15 µM. The TGI with SK-OV-3 ovarian came out at 6.79 µM; in the test on COLO 205 colon, 0.454 µM; in the test on A498 renal, 9.04 µM.

Turning to `CCOc1ccc(NC(=O)CC2SC(=Nc3ccc(Cl)cc3)NC2=O)cc1` (configuration not stated), the TGI with A549 NSCLC, in the test with EKVX NSCLC, with SN12C renal, in the test on RPMI-8226 leukemia, in the test on NCI-H226 lung and in the test on SF-539 CNS was above 100 µM each time. In addition, the TGI in the test with SK-OV-3 ovarian, in the test with COLO 205 colon and with A498 renal was above 100 µM in each case.

In the case of `O=P([O-])(O)OP(=O)([O-])O.[NH-][C@H]1CCCC[C@@H]1[NH-].[OH-].[OH-].[Pt+4]`, the GI50 in the test on EKVX NSCLC was 25.3 µM; in the test on SN12C renal it was 29.2 µM; in the test with RPMI-8226 leukemia, above 100 µM; in the test on NCI-H226 lung, 23.2 µM; in the test with SF-539 CNS it was 22.3 µM; with SK-OV-3 ovarian, 19.9 µM. In addition, the GI50 in the test on COLO 205 colon was 88.2 µM; in the test with A498 renal, 21.1 µM. Moreover, the TGI was 68.3 µM with EKVX NSCLC; 87.9 µM in the test with SN12C renal; above 100 µM with RPMI-8226 leukemia; 55 µM in the test on NCI-H226 lung; 57.6 µM in the test with SF-539 CNS; 38.6 µM in the test with SK-OV-3 ovarian. The TGI in the test on COLO 205 colon was above 100 µM; in the test with A498 renal it was 39.9 µM.

`FC(F)(F)C1(Cl)C(c2ccccc2)=C1c1ccccc1`: the TGI in the test with A549 NSCLC is 28.9 µM; in the test on EKVX NSCLC it was 29.9 µM; in the test on SN12C renal, 29.3 µM; in the test on RPMI-8226 leukemia it was above 100 µM; in the test with NCI-H226 lung, 29.2 µM; in the test on SF-539 CNS, 29.6 µM. The TGI came out at 32.4 µM in the test with SK-OV-3 ovarian and 30.3 µM in the test on COLO 205 colon.

`C#CCC[C@@H]1O[C@@]1(C)CC/C=C(\C)CC/C=C/C=O`: the TGI in the test on A549 NSCLC was above 100 µM; in the test on EKVX NSCLC, above 100 µM; in the test with SN12C renal it was above 100 µM; in the test with RPMI-8226 leukemia, 56.4 µM; in the test with NCI-H226 lung, above 100 µM; with SF-539 CNS, 38.7 µM. In addition, the TGI with SK-OV-3 ovarian and in the test with COLO 205 colon was above 100 µM each time.

On to `COc1cc(C(=O)OCCCCCCCCCCC[P+](c2ccccc2)(c2ccccc2)c2ccccc2)ccc1O`, for which the GI50 in the test on RPMI-8226 leukemia is 0.2 µM; in the test on SK-OV-3 ovarian, 1.35 µM; in the test on COLO 205 colon, 1.49 µM; in the test on A498 renal, 1.84 µM. The TGI with RPMI-8226 leukemia was determined as 0.942 µM; in the test on SK-OV-3 ovarian, 5.5 µM; with COLO 205 colon, 3.06 µM; in the test with A498 renal, 5.23 µM.

For the compound `C=CCC1OC(C)(C)Oc2ccc(OCOCCOC)cc21` (configuration not stated), the TGI in the test with A549 NSCLC, in the test on EKVX NSCLC, with SN12C renal, in the test with SF-539 CNS, with SK-OV-3 ovarian and in the test on A498 renal was above 100 µM in each case.
